Measured values taken from patent US10266495B2, “Phenyl quinolinone derivatives as mutant-isocitrate dehydrogenase inhibitors” (FORMA TM2, Inc., priority 2014, dated 2019).

How the values were obtained:
[1] = target: IDH1-R132H recombinant protein (Homo sapiens, UniProt O75874, R132H); assay: IDH1-R132H enzymatic assay (NADPH consumption, diaphorase/resazurin readout); type: biochemical; details: read-out: Enzyme IDH1 R132H IC50 Range
Experimental: (§1) Assays were performed in a 384-well black plate. An aliquot of 250 nL of compound was incubated with 10 μL of 30 nM IDH1-R132H or 10 nM IDH1-R132C recombinant protein in assay buffer (50 mM Tris pH=7.5, 150 mM NaCl, 5 mM MgCl2, 0.1% (w/v) Bovine Serum Albumin, and 0.01% Triton X-100) in each well at 25° C. for 15 minutes. After the plate was centrifuged briefly, an aliquot of 10 μL of 2 mM α-ketoglutarate and 20 μM NADPH solution prepared in assay buffer was then added to each well and the reaction was maintained at 25° C. for 45 minutes. An aliquot of 10 μL of diaphorase solution (0.15 U/mL diaphorase and 30 μM Resazurin in assay buffer) was added to each well. […] The IC50 of a given compound was calculated by fitting the dose response curve of inhibition of NADPH consumption at a given concentration with the four parameter logistic equation.

[2] = target: IDH1-R132C recombinant protein (Homo sapiens, UniProt O75874, R132C); assay: IDH1-R132C enzymatic assay (NADPH consumption, diaphorase/resazurin readout); type: biochemical; details: read-out: Enzyme IDH1 R132C IC50 Range
Experimental: as §1

Chain of IDH1-R132C recombinant protein (O75874 whole entry R132C): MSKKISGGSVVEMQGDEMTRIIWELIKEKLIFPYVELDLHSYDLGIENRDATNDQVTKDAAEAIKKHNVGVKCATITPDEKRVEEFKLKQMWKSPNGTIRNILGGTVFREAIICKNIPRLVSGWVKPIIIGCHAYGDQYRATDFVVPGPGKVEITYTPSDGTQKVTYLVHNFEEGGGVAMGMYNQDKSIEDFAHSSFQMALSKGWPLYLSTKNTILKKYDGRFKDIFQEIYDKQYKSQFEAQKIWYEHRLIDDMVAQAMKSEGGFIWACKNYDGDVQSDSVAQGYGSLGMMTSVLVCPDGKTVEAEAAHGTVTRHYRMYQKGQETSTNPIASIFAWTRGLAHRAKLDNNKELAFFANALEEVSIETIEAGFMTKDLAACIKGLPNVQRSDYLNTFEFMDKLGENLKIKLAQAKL
Chain of IDH1-R132H recombinant protein (O75874 whole entry R132H): as the sequence (O75874 whole entry R132C) above, with C132H counted along it

IC50 [1] | IC50 [2] | Structure (SMILES)
10 to 100 nM | > 1000 nM | COc1cc(NCc2cc3cc(Cl)c(OCC(=O)N(C)C)cc3[nH]c2=O)ccc1C#N [Compound I-67, 2-[(6-chloro-3-{[(4-cyano-3-methoxyphenyl)amino]methyl}-2-oxo-1,2-dihydroquinolin-7-yl)oxy]-N,N-dimethylacetamide]
10 to 100 nM | 100 to 1000 nM | COc1cc(NCc2cc3cc(Cl)c(OCC(N)=O)cc3[nH]c2=O)ccc1C#N [Compound I-68, 2-[(6-chloro-3-{[(4-cyano-3-methoxyphenyl)amino]methyl}-2-oxo-1,2-dihydroquinolin-7-yl)oxy]acetamide]
10 to 100 nM | 100 to 1000 nM | COc1cc(NCc2cc3cc(Cl)c(OCc4cc(C)n(C)n4)cc3[nH]c2=O)ccc1C#N [Compound I-70, 4-[({6-chloro-7-[(1,5-dimethyl-1H-pyrazol-3-yl)methoxy]-2-oxo-1,2-dihydroquinolin-3-yl}methyl)amino]-2-methoxybenzonitrile]
10 to 100 nM | > 1000 nM | COc1cc(NCc2cc3cc(Cl)c(OCc4ccccc4)cc3[nH]c2=O)ccc1C#N [Compound I-71, 4-({[7-(benzyloxy)-6-chloro-2-oxo-1,2-dihydroquinolin-3-yl]methyl}amino)-2-methoxybenzonitrile]
10 to 100 nM | > 1000 nM | COc1cc(NCc2cc3cc(Cl)c(OCC4CCCCN4C)cc3[nH]c2=O)ccc1C#N (centres unmarked) [Compound I-72, 4-[({6-chloro-7-[(1-methylpiperidin-2-yl)methoxy]-2-oxo-1,2-dihydroquinolin-3-yl}methyl)amino]-2-methoxybenzonitrile]
100 to 1000 nM | > 1000 nM | COc1cc(NCc2cc3cc(Cl)c(OCc4ccncc4)cc3[nH]c2=O)ccc1C#N [Compound I-74, 4-({[6-chloro-2-oxo-7-(pyridin-4-ylmethoxy)-1,2-dihydroquinolin-3-yl]methyl}amino)-2-methoxybenzonitrile]
10 to 100 nM | > 1000 nM | COc1cc(NCc2cc3cc(Cl)c(OCc4cnccn4)cc3[nH]c2=O)ccc1C#N [Compound I-76, 4-({[6-chloro-2-oxo-7-(pyrazin-2-ylmethoxy)-1,2-dihydroquinolin-3-yl]methyl}amino)-2-methoxybenzonitrile]
10 to 100 nM | 100 to 1000 nM | COc1cc(NCc2cc3cc(Cl)c(OCc4cncn4C)cc3[nH]c2=O)ccc1C#N [Compound I-77, 4-[({6-chloro-7-[(1-methyl-1H-imidazol-5-yl)methoxy]-2-oxo-1,2-dihydroquinolin-3-yl}methyl)amino]-2-methoxybenzonitrile]
10 to 100 nM | 100 to 1000 nM | COc1cc(NCc2cc3cc(Cl)c(OCc4nccn4C)cc3[nH]c2=O)ccc1C#N [Compound I-78, 4-[({6-chloro-7-[(1-methyl-1H-imidazol-2-yl)methoxy]-2-oxo-1,2-dihydroquinolin-3-yl}methyl)amino]-2-methoxybenzonitrile]
10 to 100 nM | 100 to 1000 nM | COc1cc(NCc2cc3cc(Cl)c(OCc4nc(C(N)=O)no4)cc3[nH]c2=O)ccc1C#N [Compound I-79, 5-{[(6-chloro-3-{[(4-cyano-3-methoxyphenyl)amino]methyl}-2-oxo-1,2-dihydroquinolin-7-yl)oxy]methyl}-1,2,4-oxadiazole-3-carboxamide]
10 to 100 nM | > 1000 nM | COc1cc(NCc2cc3cc(Cl)c(OCCc4ccccn4)cc3[nH]c2=O)ccc1C#N [Compound I-80, 4-[({6-chloro-2-oxo-7-[2-(pyridin-2-yl)ethoxy]-1,2-dihydroquinolin-3-yl}methyl)amino]-2-methoxybenzonitrile]
100 to 1000 nM | > 1000 nM | COc1cc(NCc2cc3cc(Cl)c(OCCCN(C)C)cc3[nH]c2=O)ccc1C#N [Compound I-82, 4-[({6-chloro-7-[3-(dimethylamino)propoxy]-2-oxo-1,2-dihydroquinolin-3-yl}methyl)amino]-2-methoxybenzonitrile]
100 to 1000 nM | > 1000 nM | COc1cc(NCc2cc3cc(Cl)c(OCCN4CCCC4)cc3[nH]c2=O)ccc1C#N [Compound I-85, 4-[({6-chloro-2-oxo-7-[2-(pyrrolidin-1-yl)ethoxy]-1,2-dihydroquinolin-3-yl}methyl)amino]-2-methoxybenzonitrile]
10 to 100 nM | > 1000 nM | COc1cc(NCc2cc3cc(Cl)c(OCCN4CCCC4=O)cc3[nH]c2=O)ccc1C#N [Compound I-86, 4-[({6-chloro-2-oxo-7-[2-(2-oxopyrrolidin-1-yl)ethoxy]-1,2-dihydroquinolin-3-yl}methyl)amino]-2-methoxybenzonitrile]
10 to 100 nM | > 1000 nM | COc1cc(NCc2cc3cc(Cl)c(OCCn4ccnc4)cc3[nH]c2=O)ccc1C#N [Compound I-89, 4-[({6-chloro-7-[2-(1H-imidazol-1-yl)ethoxy]-2-oxo-1,2-dihydroquinolin-3-yl}methyl)amino]-2-methoxybenzonitrile]
10 to 100 nM | 100 to 1000 nM | COc1cc(NCc2cc3cc(Cl)c(OCCn4ccnc4C)cc3[nH]c2=O)ccc1C#N [Compound I-90, 4-[({6-chloro-7-[2-(2-methyl-1H-imidazol-1-yl)ethoxy]-2-oxo-1,2-dihydroquinolin-3-yl}methyl)amino]-2-methoxybenzonitrile]
100 to 1000 nM | > 1000 nM | COc1cc(NCc2cc3cc(Cl)c(OCCn4nc(C)cc4C)cc3[nH]c2=O)ccc1C#N [Compound I-92, 4-[({6-chloro-7-[2-(3,5-dimethyl-1H-pyrazol-1-yl)ethoxy]-2-oxo-1,2-dihydroquinolin-3-yl}methyl)amino]-2-methoxybenzonitrile]

More lines, now with the values behind:

Structure (SMILES) | IC50 [1] | IC50 [2]
COc1cc(NCc2cc3cc(Cl)c(OCCN4CCN(S(C)(=O)=O)CC4)cc3[nH]c2=O)ccc1C#N [Compound I-64, 4-[({6-chloro-7-[2-(4-methanesulfonylpiperazin-1-yl)ethoxy]-2-oxo-1,2-dihydroquinolin-3-yl}methyl)amino]-2-methoxybenzonitrile] | 10 to 100 nM | 100 to 1000 nM
COc1cc(NCc2cc3cc(Cl)c(OC[C@H]4CCOC4)cc3[nH]c2=O)ccc1C#N [Compound I-65, 4-[({6-chloro-2-oxo-7-[(3S)-oxolan-3-ylmethoxy]-1,2-dihydroquinolin-3-yl}methyl)amino]-2-methoxybenzonitrile] | 10 to 100 nM | > 1000 nM
COc1cc(NCc2cc3cc(Cl)c(OC4CCN(C)CC4)cc3[nH]c2=O)ccc1C#N [Compound I-66, 4-[({6-chloro-7-[(1-methylpiperidin-4-yl)oxy]-2-oxo-1,2-dihydroquinolin-3-yl}methyl)amino]-2-methoxybenzonitrile] | 10 to 100 nM | > 1000 nM
COc1cc(NCc2cc3cc(Cl)c(OCC(=O)N4CCOCC4)cc3[nH]c2=O)ccc1C#N [Compound I-69, 4-[({6-chloro-7-[2-(morpholin-4-yl)-2-oxoethoxy]-2-oxo-1,2-dihydroquinolin-3-yl}methyl)amino]-2-methoxybenzonitrile] | 10 to 100 nM | > 1000 nM
COc1cc(NCc2cc3cc(Cl)c(OCC4CCS(=O)(=O)CC4)cc3[nH]c2=O)ccc1C#N [Compound I-75, 4-[({6-chloro-7-[(1,1-dioxo-1λ^6-thian-4-yl)methoxy]-2-oxo-1,2-dihydroquinolin-3-yl}methyl)amino]-2-methoxybenzonitrile] | 100 to 1000 nM | > 1000 nM
COc1cc(NCc2cc3cc(Cl)c(OCCc4ccncc4)cc3[nH]c2=O)ccc1C#N [Compound I-81, 4-[({6-chloro-2-oxo-7-[2-(pyridin-4-yl)ethoxy]-1,2-dihydroquinolin-3-yl}methyl)amino]-2-methoxybenzonitrile] | 10 to 100 nM | > 1000 nM
COc1cc(NCc2cc3cc(Cl)c(OCCCN4CCCC4)cc3[nH]c2=O)ccc1C#N [Compound I-83, 4-[({6-chloro-2-oxo-7-[3-(pyrrolidin-1-yl)propoxy]-1,2-dihydroquinolin-3-yl}methyl)amino]-2-methoxybenzonitrile] | 10 to 100 nM | > 1000 nM
COc1cc(NCc2cc3cc(Cl)c(OCCCN4CCCCC4)cc3[nH]c2=O)ccc1C#N [Compound I-84, 4-[({6-chloro-2-oxo-7-[3-(piperidin-1-yl)propoxy]-1,2-dihydroquinolin-3-yl}methyl)amino]-2-methoxybenzonitrile] | 100 to 1000 nM | > 1000 nM
COc1cc(NCc2cc3cc(Cl)c(OCCN4CCCCC4)cc3[nH]c2=O)ccc1C#N [Compound I-87, 4-[({6-chloro-2-oxo-7-[2-(piperidin-1-yl)ethoxy]-1,2-dihydroquinolin-3-yl}methyl)amino]-2-methoxybenzonitrile] | 10 to 100 nM | > 1000 nM
COc1cc(NCc2cc3cc(Cl)c(OCCN4CCN(C)CC4)cc3[nH]c2=O)ccc1C#N [Compound I-88, 4-[({6-chloro-7-[2-(4-methylpiperazin-1-yl)ethoxy]-2-oxo-1,2-dihydroquinolin-3-yl}methyl)amino]-2-methoxybenzonitrile] | 10 to 100 nM | > 1000 nM
COc1cc(NCc2cc3cc(Cl)c(OCCN4CCS(=O)(=O)CC4)cc3[nH]c2=O)ccc1C#N [Compound I-91, 4-[({6-chloro-7-[2-(1,1-dioxo-1λ^6,4-thiomorpholin-4-yl)ethoxy]-2-oxo-1,2-dihydroquinolin-3-yl}methyl)amino]-2-methoxybenzonitrile] | 100 to 1000 nM | > 1000 nM
